Measurements from US10517889B2, “Modulators of SMAD7 expression” (Ionis Pharmaceuticals, Inc., priority 2017, dated 2019).
Strand notation (5' to 3'): a small letter for the sugar, then the base; units joined by * are phosphorothioate-linked, units joined directly phosphodiester-linked; [ ] holds rarer units or linkages, { } end groups; capitals alone tell only the bases. e = 2'-O-(2-methoxyethyl) (MOE); [5mC] = 5-methylcytosine; d = 2'-deoxy (DNA)

Assays:
human SMAD7 mRNA [1] = experiment: Dose-dependent inhibition of human SMAD7 mRNA expression in Hep3B cells (Example 3, Study 1 and 2); format: cell-based; conditions: electroporation; for % inhibition of SMAD7 mRNA expression: approximately 16 hours; for IC50: Study 1 (312.5-20000 nM)
Method in brief: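 Hep3B cells, 20,000 per well, electroporated with antisense oligonucleotide at 0.31, 1.25, 5.00 or 20.00 μM (first series) or 0.74, 2.22, 6.67 or 20.00 μM (second series). After ~16 h, SMAD7 mRNA measured by RT-qPCR (RTS5062), normalised to RIBOGREEN total RNA. Percent inhibition vs untreated cells; IC50 derived.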

human SMAD7 mRNA [2] = experiment: Antisense inhibition of human SMAD7 mRNA expression in Hep3B cells by 5-10-5 MOE gapmers, single concentration, electroporation, RT-PCR (Example 1, Study 1 and 2); format: cell-based
Method in brief: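 Hep3B cells (20,000/well) electroporated with 5-10-5 MOE gapmer at 5,000 nM or 15,000 nM for approximately 24 h. SMAD7 mRNA quantified by real-time PCR with primer probe set RTS5062 and normalized to RIBOGREEN total RNA. Values are percent inhibition relative to untreated controls.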

[3] = 312.5 nM, Study 1, relative to untreated control cells
[4] = electroporation, 15,000 nM antisense oligonucleotide (Study 2), 5-10-5 MOE gapmers targeting SEQ ID NO: 1 and 2
[5] = electroporation with 15,000 nM antisense oligonucleotide (Study 2), 5-10-5 MOE gapmers targeting SEQ ID NO: 1 and 2
[6] = electroporation, 15,000 nM, approximately 24 hours, relative to untreated control cells, gapmers targeting SEQ ID NO: 1 and 2
[7] = Study 2, electroporation with 15,000 nM antisense oligonucleotide, 5-10-5 MOE gapmers targeting SEQ ID NO: 1 and 2

Substance | % inhibition of SMAD7 mRNA expression (human SMAD7 mRNA [1]; [3]) [%] | % inhibition of SMAD7 mRNA expression (human SMAD7 mRNA [1]; 1250.0 nM, Study 1) [%] | % inhibition of SMAD7 mRNA expression (human SMAD7 mRNA [1]; 5000.0 nM, Study 1) [%] | % inhibition of SMAD7 mRNA expression (human SMAD7 mRNA [1]; 20000.0 nM, Study 1) [%] | IC50 (human SMAD7 mRNA [1]) [µM] | % inhibition of SMAD7 mRNA expression (human SMAD7 mRNA [2]; [4]) [%] | % inhibition of SMAD7 mRNA expression (human SMAD7 mRNA [2]; [5]) [%] | % Inhibition of SMAD7 mRNA (human SMAD7 mRNA [2]; [5]) [%] | % inhibition of SMAD7 mRNA expression (human SMAD7 mRNA [2]; [6]) [%] | % Inhibition (human SMAD7 mRNA [2]; [7]) [%] | % inhibition of SMAD7 mRNA expression (human SMAD7 mRNA [2]; [7]) [%]
771506 (antisense eG*e[5mC]*eT*e[5mC]*eA*dG*d[5mC]*dT*d[5mC]*dA*d[5mC]*dG*d[5mC]*dT*d[5mC]*eT*eG*eT*e[5mC]*e[5mC]) [compound 771506] | 54 | 1 | 5 | 44 | > 20 | 53 |  |  |  |  | 
771641 (antisense eA*eG*eT*eT*eA*dG*dG*dT*dG*dT*d[5mC]*dA*dG*d[5mC]*d[5mC]*eT*eA*eG*eG*eA) [compound 771641] | 3 | 16 | 24 | 50 | > 20 |  | 71 |  |  |  | 
771441 (e[5mC]*eG*eA*eG*eG*dG*d[5mC]*dG*dG*d[5mC]*dT*dG*d[5mC]*dG*d[5mC]*eA*eG*eG*e[5mC]*eT; antisense) [compound 771441] | 0 | 5 | 45 | 64 | 9 | 10 |  | 60 |  |  | 
771661 (antisense eA*eA*eT*eG*e[5mC]*dT*dT*d[5mC]*dT*d[5mC]*dT*dT*dG*dT*dT*e[5mC]*eA*eT*eT*eT) [compound 771661] | 0 | 0 | 6 | 28 | > 20 |  |  |  | 69 |  | 
771733 (antisense eT*eG*eA*e[5mC]*eA*dG*d[5mC]*d[5mC]*dA*d[5mC]*dA*dA*dG*dT*d[5mC]*eA*e[5mC]*eA*eA*e[5mC]) [compound 771733] | 0 | 0 | 26 | 61 | 16 |  |  |  | 75 |  | 
771705 (antisense eA*eA*eT*eG*e[5mC]*d[5mC]*d[5mC]*dT*dT*dT*dG*dA*dG*dT*dT*eT*e[5mC]*e[5mC]*e[5mC]*e[5mC]) [compound 771705] | 0 | 0 | 0 | 9 |  | 52 |  |  |  |  | 
771786 (antisense eA*eG*e[5mC]*eT*e[5mC]*dA*dA*dA*d[5mC]*dT*dT*dT*dG*dA*dA*eG*e[5mC]*e[5mC]*eT*eT) [compound 771786] | 2 | 0 | 53 | 40 | > 20 | 56 |  |  |  |  | 
771782 (antisense eT*eA*eG*eG*eA*d[5mC]*dT*dG*dG*dA*dA*dG*dA*dG*d[5mC]*eT*eT*eT*eG*eG) [compound 771782] | 0 | 9 | 27 | 38 | > 20 |  |  |  |  | 50 | 
771583 (antisense eT*eG*e[5mC]*eT*e[5mC]*d[5mC]*dT*dG*dG*d[5mC]*dA*dG*d[5mC]*dT*dG*e[5mC]*eT*eG*eG*eG) [compound 771583] | 0 | 15 | 36 | 59 | 10 |  |  |  |  |  | 57
